Measurements published in patent publication US20260115187A1, “TRICYCLIC SKELETON COMPOUND AND USE THEREOF IN PREPARATION OF ANTITUMOR DRUG” (ZHONGSHAN HOSPITAL, FUDAN UNIVERSITY, priority 2024, published 2026).
pIC50: −log10 of the molar value.

Assays:
[1] = test system: MHCC97H KSR2 OE (97H cells overexpressing KSR2); test: Cell IC50 assay (CCK8 cell viability), MHCC97H KSR2 OE; assay type: cell-based; details: Homo sapiens, hepatoma cells, 72 h incubation, CCK8, read-out: IC50 value of cell viability, MHCC97H KSR2 OE (97H cells overexpressing KSR2)
Experimental: (§1) (1) Cell Preparation: Hepatoma cells (PLC/PRF/5, sourced from the Chinese Academy of Sciences; MHCC97H, sourced from this research institute) in good growth condition are prepared. The cells are trypsinized, diluted, and seeded into 96-well cell culture plates. 1,000-3,000 cells are added per well. The plates are then placed in a cell culture incubator at 37° C. with 5% CO2. Drugs are added after the cells have adhered for 24 h.
(§2) (2) Drug Addition: The drugs are subjected to gradient dilution, typically setting 9 concentrations. Control groups containing no drug medium and medium containing only the drug solvent are also set up. The diluted drugs are added to the cell culture plates seeded the previous day. The plates are incubated for 72 h.
(§3) (3) CCK8 Assay for Cell Viability: CCK8 is mixed with culture medium at a 1:10 ratio. 100 μL of this mixture is added to each well of the cell culture plate. After incubating for 2-4 h, the OD values are measured using a microplate reader.
(§4) (4) Data Analysis: Based on the corresponding OD values, the data are compiled, IC50 curves are plotted, and the IC50 values are obtained.
(§5) (5) IC50 Verification: The theoretical IC50 value is identified from the IC50 curve. Drug concentrations at ½ times, 1 time, and 2 times this theoretical value are used for verification.

[2] = test system: PLC/PRF/5 KSR2 OE (PLC cells overexpressing KSR2); test: Cell IC50 assay (CCK8 cell viability), PLC/PRF/5 KSR2 OE; assay type: cell-based; details: Homo sapiens, PLC-PRF-5; hepatoma cells, 72 h incubation, CCK8; read-out: IC50 value of cell viability, PLC/PRF/5 KSR2 OE (PLC cells overexpressing KSR2)
Experimental: as §1, §2, §3, §4, §5

Row | SMILES | pIC50 [1] | pIC50 [2]
1 | CN(C)CC1CCN(CCCNC(=O)c2nn(C)c3c2CSc2ccccc2-3)C1 (centres unmarked) [Compound 53] | 4.20 | 4.04
2 | CN(C)C1CN(CCCNC(=O)c2nn(C)c3c2CSc2ccccc2-3)C1 [Compound 54] | 5.30 | 5.22
3 | Cn1nc(C(=O)NCCCN2CCC(N)CC2)c2c1-c1ccccc1SC2 [Compound 55] | 5.30 | 5.40
4 | Cn1nc(C(=O)NCCCN2CCC(N3CCN(S(C)(=O)=O)CC3)CC2)c2c1-c1ccccc1SC2 [Compound 56] | 4.21 | 4.30
5 | Cn1nc(C(=O)NCCCN2CCC(NC(=O)C3CC3)CC2)c2c1-c1ccccc1SC2 [Compound 57] | 4.68 | 5.70
6 | Cn1nc(C(=O)NCCCN2CCC(N3CCN(Cc4ccccc4)CC3)CC2)c2c1-c1ccccc1SC2 [Compound 58] | 5.70 | 5.70
7 | CC(=O)N1CCN(C2CCN(CCCNC(=O)c3nn(C)c4c3CSc3ccccc3-4)CC2)CC1 [Compound 59] | 4.51 | 4.96
8 | CC(C)N1CCN(C2CCN(CCCNC(=O)c3nn(C)c4c3CSc3ccccc3-4)CC2)CC1 [Compound 60] | 5.40 | 5.70
9 | CCN1CCN(C2CCN(C3CC(CNC(=O)c4nn(C)c5c4CSc4ccccc4-5)C3)CC2)CC1 (centres unmarked) [Compound 61] | 6.00 | 6.70
10 | Cn1nc(C(=O)NCCCN2CCC(N3CCN(C4CC4)CC3)CC2)c2c1-c1ccccc1SC2 [Compound 63] | 5.00 | 4.92
11 | Cn1nc(C(=O)NCCCN2CCC(N3CCN(CC4CC4)CC3)CC2)c2c1-c1ccccc1SC2 [Compound 64] | 5.22 | 5.30
12 | CN(Cc1ccccc1)C1CCN(CCCNC(=O)c2nn(C)c3c2CSc2ccccc2-3)CC1 [Compound 65] | 4.85 | 5.10
13 | COCCN1CCN(C2CCN(CCCNC(=O)c3nn(C)c4c3CSc3ccccc3-4)CC2)CC1 [Compound 66] | 4.68 | 4.72
14 | Cn1nc(C(=O)NCCCN2CCC(N3CCN(CCO)CC3)CC2)c2c1-c1ccccc1SC2 [Compound 67] | 4.62 | 4.70
15 | CN1CCN(C2CCN(CCCNC(=O)c3nn(C)c4c3COc3cc(Cl)ccc3-4)CC2)CC1 [Compound 68] | 5.70 | 6.15
16 | CN1CCN(C2CCN(CCCNC(=O)c3nn(C)c4c3COc3ccc(Cl)cc3-4)CC2)CC1 [Compound 69] | 5.30 | 6.22
17 | Cn1nc(C(=O)NCCCN2CCC(N3CCN(CC4COC4)CC3)CC2)c2c1-c1ccccc1SC2 [Compound 70] | 5.05 | 4.41
18 | CN1CCN(C2CCN(CCCNC(=O)c3nn(C)c4c3COc3cc(F)ccc3-4)CC2)CC1 [Compound 71] | 5.30 | 5.10
19 | CN1CCN(C2CCN(CCCNC(=O)c3nn(C)c4c3COc3c(Cl)cccc3-4)CC2)CC1 [Compound 72] | 5.70 | 5.70
20 | CN1CCN(C2CCN(CCCNC(=O)c3nn(C)c4c3COc3c(F)cccc3-4)CC2)CC1 [Compound 73] | 5.52 | 4.92

Row | SMILES | pIC50 [1] | pIC50 [2]
21 | CN1CC2CCC(C1)N2C1CCN(CCCNC(=O)c2nn(C)c3c2CSc2ccccc2-3)CC1 [Compound 74] | 5.10 | 5.00
22 | CN1CCN(C2CCN(CCCNC(=O)c3nn(C)c4c3CS(=O)(=O)c3ccccc3-4)CC2)CC1 [Compound 75] | 3.98 | 4.74
23 | CN1CCN(C2CCN(CCCNC(=O)c3nn(C)c4c3COc3ccc(F)cc3-4)CC2)CC1 [Compound 76] | 4.66 | 4.74
24 | CN1CCN(C2CN(C3CC(CNC(=O)c4nn(C)c5c4CSc4ccccc4-5)C3)C2)CC1 (centres unmarked) [Compound 77] | 4.57 | 4.68
25 | CN1CCN(C2CCN(C3CC(CNC(=O)c4nn(C)c5c4CSc4ccccc4-5)C3)CC2)CC1 (centres unmarked) [Compound 78] | 5.22 | 4.92
26 | Cn1nc(C(=O)NCCCN2CCC(N3CCN(CCC#N)CC3)CC2)c2c1-c1ccccc1SC2 [Compound 79] | 4.40 | 4.24
27 | CCN1CCN(C2CN(C3CC(CNC(=O)c4nn(C)c5c4CSc4ccccc4-5)C3)C2)CC1 (centres unmarked) [Compound 80] | 5.10 | 4.55
28 | CCN1CCN(C2CN(CCCNC(=O)c3nn(C)c4c3CSc3ccccc3-4)C2)CC1 [Compound 81] | 4.96 | 4.59
29 | CN1CCN(C2CCN(CCCNC(=O)c3nn(C)c4c3COc3ccc(C#N)cc3-4)CC2)CC1 [Compound 82] | 5.10 | 5.10
30 | CN1CCN(C2CCN(CCCNC(=O)c3n[nH]c4c3CSc3ccccc3-4)CC2)CC1 [Compound 83] | 5.00 | 4.74
31 | CCN1CCN(C2CCN(CCCNC(=O)c3nn(C)c4c3COc3cc(Cl)ccc3-4)CC2)CC1 [Compound 84] | 6.00 | 5.70
32 | CN1CCN(C2CN(CCCNC(=O)c3nn(C)c4c3CSc3ccccc3-4)C2)CC1 [Compound 85] | 4.72 | 4.60
33 | CN1CCN(C2CN(CCCNC(=O)c3nn(C)c4c3COc3cc(Cl)ccc3-4)C2)CC1 [Compound 86] | 5.22 | 5.22
34 | CCN1CCN(C2CN(CCCNC(=O)c3nn(C)c4c3COc3cc(Cl)ccc3-4)C2)CC1 [Compound 87] | 5.52 | 5.22
35 | CN1CCN(C2CCN(CCCNC(=O)c3nn(C4COC4)c4c3CSc3ccccc3-4)CC2)CC1 [Compound 88] | 4.39 | 4.66
36 | CN1CCN(C2CCN(CCCNC(=O)c3c4c(nn3C3COC3)-c3ccccc3SC4)CC2)CC1 [Compound 89] | 4.49 | 4.82
37 | CN1CCN(C2CCN(CCCNC(=O)c3nn(CC(C)(C)O)c4c3CSc3ccccc3-4)CC2)CC1 [Compound 90] | 4.47 | 4.68
38 | CN1CCN(C2CCN(CCCNC(=O)c3nn(C)c4c3COc3cc(C(F)(F)F)ccc3-4)CC2)CC1 [Compound 91] | 5.40 | 5.70
39 | CN1CCN(C2CCN(CCCNC(=O)c3nn(C)c4c3COc3cc(Br)ccc3-4)CC2)CC1 [Compound 92] | 5.40 | 5.40
40 | CN1CCN(C2CCN(CCCNC(=O)c3nn(C)c4c3COc3cc(C5CC5)ccc3-4)CC2)CC1 [Compound 93] | 5.40 | 5.52

Row | SMILES | pIC50 [1] | pIC50 [2]
41 | CN1CCN(C2CCN(CCCNC(=O)c3nn(C)c4c3COc3cc(C#N)ccc3-4)CC2)CC1 [Compound 94] | 5.00 | 5.15
42 | CN1CCN(C2CCN(CCCNC(=O)c3nn(C)c4c3COc3cc(-c5cnn(C)c5)ccc3-4)CC2)CC1 [Compound 95] | 5.70 | 5.70
43 | CN1CCN(C2CCN(CCCNC(=O)c3nn(C)c4c3CSc3cc(Cl)ccc3-4)CC2)CC1 [Compound 96] | 6.00 | 5.40
44 | CN1CCN(C2CN(CCCNC(=O)c3nn(C)c4c3CSc3cc(Cl)ccc3-4)C2)CC1 [Compound 97] | 5.30 | 5.15
45 | Cn1nc(C(=O)NCCCN2CC(N3CCOCC3)C2)c2c1-c1ccc(Cl)cc1OC2 [Compound 98] | 4.54 | 4.74
46 | CN1CCN(C2CN(C3CC(CNC(=O)c4nn(C)c5c4COc4cc(Cl)ccc4-5)C3)C2)CC1 (centres unmarked) [Compound 99] | 4.77 | 5.05
47 | CN1CCCC12CN(CCCNC(=O)c1nn(C)c3c1CSc1ccccc1-3)C2 [Compound 100] | 4.15 | 4.21
48 | CN1CCN(C2CCN(CCCNC(=O)c3nn(C)c4c3COc3cc(Cl)c(Br)cc3-4)CC2)CC1 [Compound 101] | 6.00 | 6.00
49 | CN1CCN(C2CCN(CCCNC(=O)c3c4c(nn3C)-c3cc(Br)c(Cl)cc3OC4)CC2)CC1 [Compound 102] | 6.00 | 6.00
50 | CC(C)N1CCN(C2CN(CCCNC(=O)c3nn(C)c4c3COc3cc(Cl)ccc3-4)C2)CC1 [Compound 103] | 5.30 | 5.30
51 | Cn1nc(C(=O)NCCCN2CC(N3CC[C@H](O)C3)C2)c2c1-c1ccc(Cl)cc1OC2 [Compound 104] | 4.39 | 4.52
52 | CN1CCN(C2CCN(CCCNC(=O)c3nn(C)c4c3COc3cc(OC(F)(F)F)ccc3-4)CC2)CC1 [Compound 105] | 5.52 | 5.40
53 | CN1CCN(C2CN(CCCNC(=O)c3nn(C)c4c3COc3cc(OC(F)(F)F)ccc3-4)C2)CC1 [Compound 107] | 5.30 | 5.70
54 | CN1CCN(C2CN(CCCNC(=O)c3c4c(nn3C)-c3ccc(OC(F)(F)F)cc3OC4)C2)CC1 [Compound 108] | 5.10 | 5.30
55 | CCN1CCN(C2CN(CCCNC(=O)c3nn(C)c4c3CSc3cc(Cl)ccc3-4)C2)CC1 [Compound 109] | 5.00 | 5.15
56 | CN1CCN(C2CN(C3CC(CNC(=O)c4nn(C)c5c4CSc4cc(Cl)ccc4-5)C3)C2)CC1 (centres unmarked) [Compound 110] | 5.05 | 5.40
57 | CCN1CCN(C2CN(C3CC(CNC(=O)c4nn(C)c5c4CSc4cc(Cl)ccc4-5)C3)C2)CC1 (centres unmarked) [Compound 111] | 5.05 | 5.22
58 | CCN1CCN(C2CN(C3CC(CNC(=O)c4nn(C)c5c4COc4cc(OC(F)(F)F)ccc4-5)C3)C2)CC1 (centres unmarked) [Compound 112] | 5.40 | 5.52
